Assays:
[1] = In vitro stability (D/H exchange, enantiomerization, degradation) in human plasma; assay type: in vitro ADME; conditions: 37° C.; for half-life: human, plasma (K3EDTA), calculated half-life
Experimental: (§1) (+)-5-({p-[2-(5-ethylpyridin-2-yl)-2-oxoethoxy]phenyl}methyl)-1,3-thiazolidine-2,4-dione, (−)-5-({p-[2-(5-ethylpyridin-2-yl)-2-oxoethoxy]phenyl}methyl)-1,3-thiazolidine-2,4-dione, rac-5-({p-[2-(5-ethylpyridin-2-yl)-2-oxoethoxy]phenyl}methyl)-(5-^2H))-1,3-thiazolidine-2,4-dione (>98% deuterium at C-5 of the 1,3-thiazolidine-2,4-dione moiety; 50:50 racemic mixture of (+)- and (−)-deuterated enantiomers) were incubated in CD-1 mouse plasma (K3EDTA as anticoagulant) or human plasma (K3EDTA as anticoagulant) at 37° C. in duplicates. Aliquots (50 μL) were removed at t=0, 0.0833, 0.25, 0.5, 1, 2, 4, 8, and 16 hours and added to micro centrifuge tubes containing 10 μL of 5% w/v zinc sulfate heptahydrate in water. Samples were frozen and stored until the study was complete. After thawing on ice, 10 μL of internal standard (ISTD) spiking solution (d4-pioglitazone in acetonitrile/water 1:1) were added followed by 250 μL of methyl t-butyl ether (MTBE). A 100 μL aliquot of the organic layer was evaporated after homogeneization and reconstituted in 100 μL of 95:5 acetonitrile/0.1% formic acid in water (v/v).
(§2) The samples were analyzed semi-quantitatively by LC/MS-MS with elution on a chiral column (Daicel ChiralPak ID-3) for the separation of enantiomers (isocratic method of 5:95 v/v 0.1% formic acid in water and acetonitrile). Peak areas for the protonated and deuterated enantiomers were calculated and normalized to the area of the ISTD. Peak areas for the deuterated enantiomers (+)-5-({p-[2-(5-ethylpyridin-2-yl)-2-oxoethoxy]phenyl}methyl)-(5-2H)-1,3-thiazolidine-2,4-dione and (−)-5-({p-[2-(5-ethylpyridin-2-yl)-2-oxoethoxy]phenyl}methyl)-(5-^2H)-1,3-thiazolidine-2,4-dione were further corrected for the isotopic peak of the corresponding protonated enantiomer, (+)- and (−)-5-({p-[2-(5-ethylpyridin-2-yl)-2-oxoethoxy]phenyl}methyl)-1,3-thiazolidine-2,4-dione respectively, if present. Corrected data were analyzed and plotted using Microsoft Excel 2013 (Microsoft Corp, Redmond, Wash.) and the Excel Solver.
(§3) Scheme 3 illustrates the possible reactions in a solution of a deuterated racemate. The deuterium at the chiral center of both enantiomers, d+ and d−, can be depleted by D/H exchange to give both protonated enantiomers, h+ and h− with rate constants kD++, kD+−, kD−+, kD−. At the same time, the protonated enantiomers h+ and h−, can exchange, with enantiomerization rate constants k+− and k−+. All four compounds can also degrade with potentially different degradation rate constants kh+d, kh−d, kd+d, kd−d for enantiomers h+, h−, d+, and d−, respectively.
(§4) Human plasma stability data and mouse plasma stability data were analyzed independently. Concurrent analysis of the data for h+, h−, and deuterated racemate was performed. Calculated concentrations were obtained through numerical approximation of differential equations (1) and (2) for the stability studies of h+ and h- and equations (3) to (6) for the stability study of deuterated racemate (50:50 d+:d−) by the Euler method (equation (7)). The step between calculated time points was minimized in order to minimize the local error (proportional to the square of the step size) and the global error (proportional to the step size). […] Data analysis was performed in Microsoft Excel 2013, using the Solver Generalized Reduced Gradient Nonlinear method with central derivatives to minimize the sum of sums of weighted Δ^2, square of difference between ISTD-normalized experimental data and calculated value, divided by the calculated value.
(§5) [formula] [formula] [formula] [formula] where [h+], [h−], [d+], [d−] are the concentrations on both protonated and deuterated enantiomers, k+− and k−+ are the rate constants for the enantiomerization reactions h+ to h− and h− to h+ respectively, kD++, kD+−, kD−+, and kD− are the rate constants for the D/H exchange reactions d+ or d− to h+ or h−, and kd is the rate constant for the degradation of all four compounds. […]

[2] = In vitro stability (D/H exchange, enantiomerization, degradation) in CD-1 mouse plasma; assay type: in vitro ADME; conditions: 37° C.; for half-life: CD-1, mouse, plasma (K3EDTA), calculated half-life
Experimental: as §1, §2, §3, §4, §5

[3] = read-out: t1/2 degradation (converted)
[4] = read-out: t1/2 enantiomerization +− (h+ to h−) (converted)
[5] = read-out: t1/2 enantiomerization −+ (h− to h+) (converted)

## CCc1ccc(C(=O)COc2ccc(CC3SC(=O)NC3=O)cc2)nc1 (single isomer, unassigned; (+)) [h+, (+)-5-({p-[2-(5-ethylpyridin-2-yl)-2-oxoethoxy]phenyl}methyl)-1,3-thiazolidine-2,4-dione]
[1]; fitted to Equations 1 to 6
  k +− (rate constant, enantiomerization h+ to h−): 0.308 h⁻¹
  k d (rate constant, degradation; assumed equal for all four compounds): 1.05e-06 s⁻¹
[1]; [3]
  half-life: 184 h
[1]; [4]
  half-life: 2.2 h
[2]; fitted to Equations 1 to 6
  k +− (rate constant, enantiomerization h+ to h−): 0.504 h⁻¹
  k d (rate constant, degradation; assumed equal for all four compounds): 4.25e-06 s⁻¹
[2]; [3]
  half-life: 45.4 h
[2]; [4]
  half-life: 1.4 h

## CCc1ccc(C(=O)COc2ccc(CC3SC(=O)NC3=O)cc2)nc1 (single isomer, unassigned; (-)) [h−, (−)-5-({p-[2-(5-ethylpyridin-2-yl)-2-oxoethoxy]phenyl}methyl)-1,3-thiazolidine-2,4-dione]
[1]; fitted to Equations 1 to 6
  k −+ (rate constant, enantiomerization h− to h+): 0.359 h⁻¹
[1]; [5]
  half-life: 1.9 h
[2]; fitted to Equations 1 to 6
  k −+ (rate constant, enantiomerization h− to h+): 0.594 h⁻¹
[2]; [5]
  half-life: 1.2 h

## [2H]C1(Cc2ccc(OCC(=O)c3ccc(CC)cn3)cc2)SC(=O)NC1=O (racemic) [d-rac, rac-5-({p-[2-(5-ethylpyridin-2-yl)-2-oxoethoxy]phenyl}methyl)-(5-^2H)-1,3-thiazolidine-2,4-dione]
[1]; fitted to Equations 1 to 6
  k d (rate constant, degradation; assumed equal for all four compounds): 1.05e-06 s⁻¹
[1]; [3]
  half-life: 184 h
[2]; fitted to Equations 1 to 6
  k d (rate constant, degradation; assumed equal for all four compounds): 4.25e-06 s⁻¹
[2]; [3]
  half-life: 45.4 h

From patent US9833445B2, “5-deutero-2,4-thiazolidinedione derivatives and compositions comprising and methods of using the same” (DeuteRx, LLC, priority 2013, dated 2017)
